Results published in patent US20210078985A1, “COMPOUND, PREPARATION METHOD THEREFOR, AND USE THEREOF” (MEDSPRING INTERNATIONAL LIMITED, priority 2018, published 2021).
Values after ≈ are worked out from the molar mass of the structure shown. Read-outs that look alike come from different tables or passages of the source.

Experiments:
[1] = molecular target: T1, CHO membranes expressing CCR4 (Homo sapiens, UniProt P51679); assay: In vitro CCR4 antagonistic activity, competitive [35S]-GTPγS test; format: biochemical
T1 construct: expressed in transfected cells; host or cells: CHO cell membranes
T1 sequence (P51679 1-360): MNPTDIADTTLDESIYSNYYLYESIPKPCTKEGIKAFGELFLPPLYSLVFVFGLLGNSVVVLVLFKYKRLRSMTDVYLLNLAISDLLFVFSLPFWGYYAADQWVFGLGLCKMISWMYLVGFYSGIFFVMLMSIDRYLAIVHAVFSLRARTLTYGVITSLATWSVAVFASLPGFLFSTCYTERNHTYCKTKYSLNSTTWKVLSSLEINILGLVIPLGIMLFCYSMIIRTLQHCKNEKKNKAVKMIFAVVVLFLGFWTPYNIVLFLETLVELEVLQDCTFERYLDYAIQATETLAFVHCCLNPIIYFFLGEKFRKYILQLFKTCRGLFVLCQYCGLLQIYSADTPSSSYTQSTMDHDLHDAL
Protocol: The potency of antagonists was tested by a competitive test of [35S]-GTPγS. Briefly, CHO membranes expressing CCR4 were homogenized through a 23 G needle. These membranes were then attached to WGA-coated Leadseeker SPA beads in a testing buffer (20 mM HEPES, 10 mM MgCl2, 100 mM NaCl, 0.05% BSA, 40 ug/ml saponin, adjusted to pH 7.4 with KOH 5M) to produce 3 μg/well final […] (FAC) membrane and 250 μg/well FAC bead solution. After 60 minutes of pre-coupling on ice, GDP was added to obtain 4.4 uM FAC. Then [35S]-GTPS, which was prepared in the testing buffer, was added into the bead/membrane solution to thereby obtain 0.33 nM FAC. […] The suspension of beads/membranes/[35S]-GTPγS/agonist was distributed into a white Greiner polypropylene 384-pore plate (45 μL/well), which contained 0.5 μl of compound. The final testing solution (45.5 μL) was sealed, centrifuged and incubated at room temperature for 3-6 hours. Then, the plate was read with Viewlux and the luminescence was plotted as the percentage of the maximum inhibitory response induced by IC100 standard antagonist.

[2] = tested on: Caco-2 cells; assay: In vitro membrane permeability test (Caco-2 monolayer)
Protocol: Caco-2 cell model is a human colonic adenocarcinoma cell line having a structure and function similar to differentiated intestinal epithelial cells. It has microvilli and other structures, and contains enzyme system related to intestinal brush border epithelium.
The cryopreserved Caco-2 cells were thawed in 37° C. water bath. After resuscitation, the cells were added into DMEM medium containing 10% FBS, and cultured in an incubator with 37° C., 5% CO2 and 90% relative humidity. The culture medium was changed every other day. After 1-2 days of growth, the cells were digested with 0.25% trypsin-EDTA (0.2%) mixed digestive solution at 37° C. and passaged in a certain proportion. The cell generation used in the experiments was 40-60 passages.
When cells reached 80% confluency, they were digested and suspended in complete medium and seeded on Millicell plate at 1×10^6 cells·ml^−1. After that, the culture medium was changed once every 2 days and after 1 week, was changed once every 1 day. After 5 days of culture, the resistance value reaches plateau (>200 Ω·cm^2), which can be then used for membrane permeability experiment.
The compound was diluted to 5 μmol·L^−1 by HBSS. Before experiments, the culture medium in each well was discarded, washed twice with HBSS solution at 37° C., and then incubated in a 37° C. incubator. […] The emission wavelength was set at 430 nm and the excitation wavelength was set at 530 nm.
Before experiments, Millicell inoculated with cells was soaked in HBSS solution at 37° C. for an appropriate time period, and the Millicell was washed slightly to remove the attachment on the cell surface. The permeability from cavity surface to basal surface: 0.35 ml HBSS solution containing drug was added to the top side (AP) and 1.2 ml blank HBSS solution was added to the bottom side (BL). The Millicell was incubated while shaking at 50 r·min^−1 at 37° C., a 50 μL sample was taken in the lower layer at 0, 30, 90 and 120 min, and a same volume of blank HBSS solution as added back. 3 holes were repeated for each concentration. 50 μL internal standard solution and 350 μL ethyl acetate were added to the sample, which was shaken and mixed, centrifuged at 12000 rpm for 5 min. 300 μL of supernatant was taken out, dried by evaporation, and re-dissolved in 50 μL acetonitrile. 10 μL sample was taken out for testing. For the permeability from the base surface to the cavity surface, the drug was added to the bottom side (BL), and the blank HBSS solution was added to the top side (AP). The following steps are the same as the permeability test operation from the cavity surface to the base surface.
The apparent permeability coefficient (Papp) of drugs reflects the ability of drugs to pass through monolayer cells and the speed and degree of drug absorption. It can be calculated by the following formula: […]
Herein, ΔQ is the amount of drug penetration during the time period of Δt, A is the cell surface area, which is the area of supporting membrane (0.6 cm^2) in this model, and Co is the initial concentration. The unit of Papp is usually expressed in cm/h (cm·h^−1) or cm/s (cm·s^−1).
LC/MS was used for testing. The standard curve ([…]-10000 nM) was used to quantify the concentration of each sample.

[3] = Protocol: Solubility of compounds was determined according to the method established in the general instructions of Part II of Pharmacopoeia 2010 edition. […] The dissolution was observed within 30 minutes.
(§1) The dissolution was then observed within 30 minutes.
as §1

| SMILES | IC50, times higher than that of compound 6 [1] | absorption classification from Papp ([2]; Caco-2) | permeability, times higher than compound 6 ([2]; Caco-2) | Solubility in water under 25° C. ± 2° C. [3] | solubility, times higher than that of compound 6 [3] | Papp (apparent permeability coefficient) ([2]; human, Caco-2) | IC50, times higher than that of compound 6 ([1]; relative to compound 6, same experimental conditions) | absorption classification from Papp ([2]; Caco-2, Papp>2×10^−6 = good-absorption drug) | Papp (apparent permeability coefficient) ([2]; Caco-2 monolayer, direction not given, sodium) | Solubility in water under 25° C. ± 2° C. ([3]; water, 25° C. ± 2° C., visual dissolution within 30 minutes) |
| --- | --- | --- | --- | --- | --- | --- | --- | --- | --- | --- |
| COc1cccc2c1c(NS(=O)(=O)c1ccc(Cl)s1)nn2Cc1cccc(CNC(=O)C(C)(C)O)c1 [Compound of formula III, N-[(3-{[3-{[(5-chloro-2-thienyl)sulfonyl]amino}-4-(methoxy)-1H-indazole-1-yl]methyl}phenyl)methyl]-2-hydroxy-2-methylpropionamide potassium] | 210 times | easy-to-absorb compounds | 530-780 times | 40 mg/mL | 2000-25000 times |  |  |  |  |  |
| COc1cccc2c1c(NS(=O)(=O)c1ccc(Cl)s1)nn2Cc1cccc(CNC(=O)C(C)(C)O)c1 [Compound 6, N-[(3-{[3-{[(5-chloro-2-thienyl)sulfonyl]amino}-4-(methoxy)-1H-indazole-1-yl]methyl}phenyl)methyl]-2-hydroxy-2-methylpropionamide, reference compound] |  | difficult-to-absorb compound |  | 0.02 mg/mL (≈ 36.4 µM) |  | 0.13 ×10^−6 |  |  |  |  |
| COc1cccc2c1c(NS(=O)(=O)c1ccc(Cl)s1)nn2Cc1cccc(CNC(=O)C(C)(C)O)c1.[Na] [Compound of formula II, N-[(3-{[3-{[(5-chloro-2-thienyl)sulfonyl]amino}-4-(methoxy)-1H-indazole-1-yl]methyl}phenyl)methyl]-2-hydroxy-2-methylpropionamide sodium] |  |  |  |  |  |  | 6 times | easy-to-absorb compounds | 68.82 ×10^−6 | 500 mg/mL |
